Reference: patent US10723741B1, “DNA polymerase IIIC inhibitors and use thereof” (Acurx Pharmaceuticals, LLC, priority 2018, dated 2020)
Converted amounts (≈) assume the structure as drawn. Where two headings read alike, the source gives them in different places.

Columns and labels:
Type in all cases: cell-based
[1] = test system: Staphylococcus aureus NRS384 (MRSA); experiment: Broth microdilution MIC, S. aureus NRS384 (MRSA); set-up: MIC NRS 384 (MRSA): unit not given here; conditions: broth microdilution, 37° C., 20 hours; for MIC: Staphylococcus aureus
Procedure, shortened: (§1)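 Two-fold dilutions from 64 to 0.0625 μg/ml final, 1% DMSO, were inoculated at ~5.0×10^5 cfu/ml in the strain's test medium and kept 20 h at 37 °C in ambient atmosphere. Colonies were grown on MHA, with S. pneumoniae on blood agar under 5% CO2.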

[2] = test system: Enterococcus faecium ATCC 700221 (VRE); experiment: Broth microdilution MIC, E. faecium ATCC 700221 (VRE); set-up: MIC E. faecium ATCC 700221 (VRE): unit: ug/mL; conditions: broth microdilution, 37° C., 20 hours; for MIC: Enterococcus faecium
Procedure, shortened: as §1

[3] = test system: Escherichia coli ATCC 25922; experiment: Broth microdilution MIC, E. coli ATCC 25922 (MHIIB w & w/o 4 mM EDTA); conditions: broth microdilution, 37° C., 20 hours; for MIC: Escherichia coli, ATCC25922, without EDTA, read-out: MIC E. coli ATCC 25922; for MIC E. coli ATCC 25922 + 4 mM EDTA: with 4 mM EDTA
Procedure, shortened: as §1

[4] = test system: Staphylococcus aureus ATCC 29213 (MSSA); experiment: Broth microdilution MIC, S. aureus ATCC 29213 (MSSA); conditions: broth microdilution, 37° C., 20 hours, read-out: MIC S. aureus ATCC 29213 (MSSA)
Procedure, shortened: as §1

[5] = test system: Streptococcus pneumoniae ATCC 49619; experiment: Broth microdilution MIC, S. pneumoniae ATCC 49619; conditions: ATCC49619, broth microdilution, 37° C., 20 hours, read-out: MIC S. pneumoniae ATCC 49619
Procedure, shortened: as §1

[6] = test system: Enterococcus faecalis ATCC 29212; experiment: Broth microdilution MIC, E. faecalis ATCC 29212; conditions: ATCC29212, broth microdilution, 37° C., 20 hours, read-out: MIC E. faecalis ATCC 29212
Procedure, shortened: as §1

[7] = test system: Bacillus subtilis ATCC 6633; experiment: Broth microdilution MIC, B. subtilis ATCC 6633; conditions: ATCC6633, broth microdilution, 37° C., 20 hours, read-out: MIC B. subtilis ATCC 6633
Procedure, shortened: as §1

[8] = read-out: MIC E. faecium ATCC 700221 (VRE)
[9] = S. aureus NRS 384, read-out: MIC NRS 384 (MRSA)

| SMILES | MIC ([1]; read-out: MIC NRS 384 (MRSA)) [µg/mL] | MIC [2, 8] [µg/mL] | MIC [3] [µg/mL] | MIC E. coli ATCC 25922 + 4 mM EDTA [3] | MIC [4] [µg/mL] | MIC [5] [µg/mL] | MIC [6] [µg/mL] | MIC [7] [µg/mL] | MIC NRS 384 (MRSA) [1] | MIC E. faecium ATCC 700221 (VRE) [2] | MIC ([1]; MHIIB, read-out: MIC against S. aureus NRS 384 (MRSA)) [µg/mL] | MIC ([2]; MHIIB, read-out: MIC against E. faecium ATCC 700221 (VRE)) [µg/mL] | MIC [1, 9] [µg/mL] |
| --- | --- | --- | --- | --- | --- | --- | --- | --- | --- | --- | --- | --- | --- |
| Cl.NCCOCCn1ncc2nc(NCc3ccc(Cl)c(Cl)c3)[nH]c(=O)c21 [Compound 99, 1-(2-(2-aminoethoxy)ethyl)-5-((3,4-dichlorobenzyl)amino)-1H-pyrazolo[4,3-d]pyrimidin-7(6H)-one hydrochloride] | 64 | 32 | > 64 | 64 µg/mL | 64 | 4 | 32 | 2 | – | – | – | – | – |
| Cc1ccc(CNc2nc3cnn(C)c3c(=O)[nH]2)cc1Cl [Compound 31, 5-((3-Chloro-4-methylbenzyl)amino)-1-methyl-1H-pyrazolo[4,3-d]pyrimidin-7(6H)-one] | 4 (≈ 13.2 µM) | 4 (≈ 13.2 µM) | > 64 | 16 µg/mL | 4 (≈ 13.2 µM) | 8 (≈ 26.3 µM) | 8 (≈ 26.3 µM) | 2 (≈ 6.58 µM) | – | – | – | – | – |
| CS(=O)(=O)CCOCCn1ncc2nc(NCc3ccc(Cl)c(Cl)c3)[nH]c(=O)c21 [Compound 220, 5-((3,4-dichlorobenzyl)amino)-1-(2-(2-(methylsulfonyl)ethoxy)ethyl)-1H-pyrazolo[4,3-d]pyrimidin-7(6H)-one] | 16 (≈ 34.8 µM) | 2 (≈ 4.34 µM) | > 64 | >64 µg/mL | 8 (≈ 17.4 µM) | 2 (≈ 4.34 µM) | 8 (≈ 17.4 µM) | 4 (≈ 8.69 µM) | – | – | – | – | – |
| NCCn1ncc2nc(NCc3ccc(Cl)c(Cl)c3)[nH]c(=O)c21 [Compound 63, 1-(2-Aminoethyl)-5-[(3,4-dichlorophenyl)methylamino]-6H-pyrazolo[4,3-d]pyrimidin-7-one] | 64 (≈ 181 µM) | 32 (≈ 90.6 µM) | > 64 | >64 µg/mL | 64 (≈ 181 µM) | 8 (≈ 22.6 µM) | 32 (≈ 90.6 µM) | 8 (≈ 22.6 µM) | – | – | – | – | – |
| O=c1[nH]c(NCc2ccc(Cl)c(Cl)c2)nc2cnn(CCCOC3CC(O)C3)c12 (centres unmarked) [Compound 179, 5-((3,4-dichlorobenzyl)amino)-1-(3-(3-hydroxycyclobutoxy)propyl)-1H-pyrazolo[4,3-d]pyrimidin-7(6H)-one] | 4 (≈ 9.13 µM) | 2 (≈ 4.56 µM) | > 64 | >64 µg/mL | 8 (≈ 18.3 µM) | 4 (≈ 9.13 µM) | 4 (≈ 9.13 µM) | 1 (≈ 2.28 µM) | – | – | – | – | – |
| O=c1[nH]c(NCc2ccc(Cl)c(Cl)c2)nc2cn(Cc3ccccc3)nc12 [Compound 129, 2-Benzyl-5-((3,4-dichlorobenzyl)amino)-2H-pyrazolo[4,3-d]pyrimidin-7(6H)-one] | > 64 | > 64 | > 64 | >64 µg/mL | > 64 | > 64 | > 64 | > 64 | – | – | – | – | – |
| Cl.O=c1[nH]c(NCc2ccc(Cl)c(Cl)c2)nc2cnn(CCOCc3cccnc3)c12 [Compound 181, 5-((3,4-Dichlorobenzyl)amino)-1-(2-(pyridin-3-ylmethoxy)ethyl)-1H-pyrazolo[4,3-d]pyrimidin-7(6H)-one hydrochloride] | – | – | > 64 | >64. ug/ml | 4 | 4 | 8 | 1 | 4/2 | 4/1 | – | – | – |
| CN(C)C(CO)C(=O)N1CCC(n2ncc3nc(NCc4ccc(Cl)c(Cl)c4)[nH]c(=O)c32)CC1.Cl (centres unmarked) [Compound 279, 5-((3,4-dichlorobenzyl)amino)-1-(1-(2-(dimethylamino)-3-hydroxypropanoyl)piperidin-4-yl)-1H-pyrazolo[4,3-d]pyrimidin-7(6H)-one hydrochloride] | 32 | 16 | > 64 | >64 µg/mL | 32 | 4 | 16 | 4 | – | – | – | – | – |
| Cl.O=c1[nH]c(NCc2ccc(Cl)c(Cl)c2)nc2cnn(Cc3ccccn3)c12 [Compound 109, 5-((3,4-Dichlorobenzyl)amino)-1-(pyridin-2-ylmethyl)-1H-pyrazolo[4,3-d]pyrimidin-7(6H)-one hydrochloride] | 64 | 4 | > 64 | >64 µg/mL | > 64 | 4 | > 64 | 2 | – | – | – | – | – |
| Cl.Cl.O=c1[nH]c(NCc2ccc(Cl)c(Cl)c2)nc2cnn(C3CCN(Cc4ccccn4)CC3)c12 [Compound 244, 5-((3,4-Dichlorobenzyl)amino)-1-(1-(pyridin-2-ylmethyl)piperidin-4-yl)-1H-pyrazolo[4,3-d]pyrimidin-7(6H)-one dihydrochloride] | 2 | 2 | > 64 | 16 µg/mL | 2 | 4 | 4 | 1 | – | – | – | – | – |
| Cn1nc(F)c2nc(NCc3ccc(Cl)c(Cl)c3)[nH]c(=O)c21 [Compound 53, 5-((3,4-dichlorobenzyl)amino)-3-fluoro-1-methyl-1H-pyrazolo[4,3-d]pyrimidin-7(6H)-one] | 0.5 (≈ 1.46 µM) | 0.5 (≈ 1.46 µM) | > 64 | 64 µg/mL | 0.5 (≈ 1.46 µM) | 2 (≈ 5.85 µM) | 2 (≈ 5.85 µM) | 0.5 (≈ 1.46 µM) | – | – | ≤ 1 | ≤ 1 | – |
| Cn1ncc2nc(NCc3ccc4[nH]ccc4c3)[nH]c(=O)c21 [Compound 14, 5-(((1H-indol-5-yl)methyl)amino)-1-methyl-1H-pyrazolo[4,3-d]pyrimidin-7(6H)-one] | > 64 | > 64 | > 64 | >64 µg/mL | > 64 | > 64 | > 64 | > 64 | – | – | – | – | – |
| Cl.O=C(O)c1ccc(OCCn2ncc3nc(NCc4ccc(Cl)c(Cl)c4)[nH]c(=O)c32)cn1 [Compound 175, 5-(2-(5-((3,4-dichlorobenzyl)amino)-7-oxo-6,7-dihydro-1H-pyrazolo[4,3-d]pyrimidin-1-yl)ethoxy)picolinic acid hydrochloride] | > 64 | > 64 | > 64 | >64 µg/mL | > 64 | > 64 | > 64 | > 64 | – | – | – | – | – |
| Cn1ncc2nc(NCc3nc(Cl)c(Cl)[nH]3)[nH]c(=O)c21 [Compound 37, 5-(((4,5-Dichloro-1H-imidazol-2-yl)methyl)amino)-1-methyl-1H-pyrazolo[4,3-d]pyrimidin-7(6H)-one] | > 64 | > 64 | > 64 | >64 µg/mL | > 64 | > 64 | > 64 | > 64 | – | – | – | – | – |
| CP(C)(=O)CCCCn1nc(F)c2nc(NCc3ccc(F)c(F)c3)[nH]c(=O)c21 [Compound 314, 5-[(3,4-Difluorophenyl)methylamino]-1-(4-dimethylphosphorylbutyl)-3-fluoro-6H-pyrazolo[4,3-d]pyrimidin-7-one] | – | 32 (≈ 74.9 µM) | > 64 | >64 µg/mL | 64 (≈ 150 µM) | 16 (≈ 37.4 µM) | > 64 | 16 (≈ 37.4 µM) | – | – | – | – | 32 (≈ 74.9 µM) |
| COCCCCCn1ncc2nc(NCc3ccc(Cl)c(Cl)c3)[nH]c(=O)c21 [Compound 131, 5-((3,4-Dichlorobenzyl)amino)-1-(5-methoxypentyl)-1H-pyrazolo[4,3-d]pyrimidin-7(6H)-one] | 2 (≈ 4.87 µM) | 2 (≈ 4.87 µM) | > 64 | >64 µg/mL | 2 (≈ 4.87 µM) | 4 (≈ 9.75 µM) | 4 (≈ 9.75 µM) | 1 (≈ 2.44 µM) | – | – | – | – | – |
| COCCn1nc(F)c2nc(NCc3ccc(F)c(F)c3)[nH]c(=O)c21 [Compound 308, 5-((3,4-Difluorobenzyl)amino)-3-fluoro-1-(2-methoxyethyl)-1H-pyrazolo[4,3-d]pyrimidin-7(6H)-one] | – | 4 (≈ 11.3 µM) | > 64 | >64 µg/mL | 4 (≈ 11.3 µM) | 4 (≈ 11.3 µM) | 8 (≈ 22.6 µM) | 2 (≈ 5.66 µM) | – | – | – | – | 4 (≈ 11.3 µM) |
| O=c1[nH]c(NCc2ccc(Cl)c(Cl)c2)nc2cn(C3COC3)nc12 [Compound 143, 5-((3,4-Dichlorobenzyl)amino)-2-(oxetan-3-yl)-2H-pyrazolo[4,3-d]pyrimidin-7(6H)-one] | 32 (≈ 87.4 µM) | 32 (≈ 87.4 µM) | > 64 | >64 µg/mL | 64 (≈ 175 µM) | 16 (≈ 43.7 µM) | 32 (≈ 87.4 µM) | 16 (≈ 43.7 µM) | – | – | – | – | – |
